# Data: patent US12077503B2, “Substituted cyclic amides and their use as herbicides” (FMC CORPORATION, priority 2015, dated 2024)
# Legend:
# Assay in all cases: Test C preemergence
# Format in all cases: in vivo
# [1] = system: waterhemp (common waterhemp, Amaranthus rudis); conditions: for Plant response rating, Waterhemp: scale 0 to 100, 0 no effect, 100 complete control
# In short: (§1)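 Visual rating, 0–100 scale (0 = no effect, 100 = complete control) versus controls, 13–15 d after treatment. Compounds in non-phytotoxic solvent plus surfactant; applied preemergence to seeds in loam/sand soil or postemergence to 1- to 4-leaf plants (2–18 cm) in peat/vermiculite medium; greenhouse-held.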
# [2] = system: nutsedge, yellow (yellow nutsedge, Cyperus esculentus); conditions: for Plant response rating, Nutsedge, Yellow: scale 0 to 100, 0 no effect, 100 complete control
# In short: as §1
# [3] = system: pigweed (Amaranthus retroflexus); conditions: for Plant response rating, Pigweed: scale 0 to 100, 0 no effect, 100 complete control
# In short: as §1
# [4] = system: corn (Zea mays); conditions: for Plant response rating, Corn: scale 0 to 100, 0 no effect, 100 complete control
# In short: as §1
# [5] = system: oilseed rape (Brassica napus); conditions: for Plant response rating, Oilseed Rape: scale 0 to 100, 0 no effect, 100 complete control
# In short: as §1
# [6] = system: barnyardgrass (Echinochloa crus-galli); conditions: for Plant response rating, Barnyardgrass: scale 0 to 100, 0 no effect, 100 complete control
# In short: as §1
# [7] = system: crabgrass, large (large crabgrass, Digitaria sanguinalis); conditions: for Plant response rating, Crabgrass, Large: scale 0 to 100, 0 no effect, 100 complete control
# In short: as §1
# [8] = system: velvetleaf (Abutilon theophrasti); conditions: for Plant response rating, Velvetleaf: scale 0 to 100, 0 no effect, 100 complete control
# In short: as §1
# [9] = system: Galium (catchweed bedstraw, Galium aparine); conditions: for Plant response rating, Galium: scale 0 to 100, 0 no effect, 100 complete control
# In short: as §1
# [10] = system: ryegrass, Italian (Italian ryegrass, Lolium multiflorum); conditions: for Plant response rating, Ryegrass, Italian: scale 0 to 100, 0 no effect, 100 complete control
# In short: as §1
# [11] = system: soybean (Glycine max); conditions: for Plant response rating, Soybean: scale 0 to 100, 0 no effect, 100 complete control
# In short: as §1
# [12] = system: lambsquarters (Chenopodium album); conditions: for Plant response rating, Lambsquarters: scale 0 to 100, 0 no effect, 100 complete control
# In short: as §1
# [13] = system: ragweed (common ragweed, Ambrosia elatior); conditions: for Plant response rating, Ragweed: scale 0 to 100, 0 no effect, 100 complete control
# In short: as §1
# [14] = system: wheat (winter wheat, Triticum aestivum); conditions: for Plant response rating, Wheat: scale 0 to 100, 0 no effect, 100 complete control
# In short: as §1
# [15] = system: morningglory (Ipomoea coccinea); conditions: for Plant response rating, Morningglory: scale 0 to 100, 0 no effect, 100 complete control
# In short: as §1
# [16] = system: johnsongrass (Sorghum halepense); conditions: for Plant response rating, Johnsongrass: scale 0 to 100, 0 no effect, 100 complete control
# In short: as §1
# [17] = system: foxtail, giant (giant foxtail, Setaria faberii); conditions: for Plant response rating, Foxtail, Giant: scale 0 to 100, 0 no effect, 100 complete control
# In short: as §1
# [18] = 31 g ai/ha, 0 is no effect, 100 is complete control
structure (smiles),measurement,setting,value
O=C1NCC(c2cccc(OC(F)(F)C(F)F)c2)C1C(=O)Nc1ccccc1F (racemic) [Compound 695],"Plant response rating (scale of 0 to 100), Waterhemp",[1]; [18],55
same,"Plant response rating, Waterhemp",[1]; 62 g ai/ha,75
same,"Plant response rating, Waterhemp",[1]; 125 g ai/ha,70
same,"Plant response rating, Waterhemp",[1]; 250 g ai/ha,85
same,"Plant response rating (scale of 0 to 100), Nutsedge, Yellow",[2]; [18],0
same,"Plant response rating, Nutsedge, Yellow",[2]; 62 g ai/ha,0
same,"Plant response rating, Nutsedge, Yellow",[2]; 125 g ai/ha,0
same,"Plant response rating, Nutsedge, Yellow",[2]; 250 g ai/ha,0
same,"Plant response rating (scale of 0 to 100), Pigweed",[3]; [18],50
same,"Plant response rating, Pigweed",[3]; 62 g ai/ha,60
same,"Plant response rating, Pigweed",[3]; 125 g ai/ha,65
same,"Plant response rating, Pigweed",[3]; 250 g ai/ha,70
same,"Plant response rating (scale of 0 to 100), Corn",[4]; [18],0
same,"Plant response rating, Corn",[4]; 62 g ai/ha,25
same,"Plant response rating, Corn",[4]; 125 g ai/ha,70
same,"Plant response rating, Corn",[4]; 250 g ai/ha,80
same,"Plant response rating (scale of 0 to 100), Oilseed Rape",[5]; [18],0
same,"Plant response rating, Oilseed Rape",[5]; 62 g ai/ha,40
same,"Plant response rating, Oilseed Rape",[5]; 125 g ai/ha,85
same,"Plant response rating, Oilseed Rape",[5]; 250 g ai/ha,80
same,"Plant response rating (scale of 0 to 100), Barnyardgrass",[6]; [18],90
same,"Plant response rating, Barnyardgrass",[6]; 62 g ai/ha,90
same,"Plant response rating, Barnyardgrass",[6]; 125 g ai/ha,90
same,"Plant response rating, Barnyardgrass",[6]; 250 g ai/ha,90
same,"Plant response rating (scale of 0 to 100), Crabgrass, Large",[7]; [18],90
same,"Plant response rating, Crabgrass, Large",[7]; 62 g ai/ha,90
same,"Plant response rating, Crabgrass, Large",[7]; 125 g ai/ha,95
same,"Plant response rating, Crabgrass, Large",[7]; 250 g ai/ha,95
same,"Plant response rating (scale of 0 to 100), Velvetleaf",[8]; [18],0
same,"Plant response rating, Velvetleaf",[8]; 62 g ai/ha,10
same,"Plant response rating, Velvetleaf",[8]; 125 g ai/ha,30
same,"Plant response rating, Velvetleaf",[8]; 250 g ai/ha,55
same,"Plant response rating (scale of 0 to 100), Galium",[9]; [18],50
same,"Plant response rating, Galium",[9]; 62 g ai/ha,80
same,"Plant response rating, Galium",[9]; 125 g ai/ha,85
same,"Plant response rating, Galium",[9]; 250 g ai/ha,90
same,"Plant response rating (scale of 0 to 100), Ryegrass, Italian",[10]; [18],0
same,"Plant response rating, Ryegrass, Italian",[10]; 62 g ai/ha,60
same,"Plant response rating, Ryegrass, Italian",[10]; 125 g ai/ha,30
same,"Plant response rating, Ryegrass, Italian",[10]; 250 g ai/ha,30
same,"Plant response rating (scale of 0 to 100), Soybean",[11]; [18],0
same,"Plant response rating, Soybean",[11]; 62 g ai/ha,0
same,"Plant response rating, Soybean",[11]; 125 g ai/ha,0
same,"Plant response rating, Soybean",[11]; 250 g ai/ha,0
same,"Plant response rating (scale of 0 to 100), Lambsquarters",[12]; [18],25
same,"Plant response rating, Lambsquarters",[12]; 62 g ai/ha,40
same,"Plant response rating, Lambsquarters",[12]; 125 g ai/ha,65
same,"Plant response rating, Lambsquarters",[12]; 250 g ai/ha,80
same,"Plant response rating (scale of 0 to 100), Ragweed",[13]; [18],35
same,"Plant response rating, Ragweed",[13]; 62 g ai/ha,70
same,"Plant response rating, Ragweed",[13]; 125 g ai/ha,75
same,"Plant response rating, Ragweed",[13]; 250 g ai/ha,80
same,"Plant response rating (scale of 0 to 100), Wheat",[14]; [18],40
same,"Plant response rating, Wheat",[14]; 62 g ai/ha,5
same,"Plant response rating, Wheat",[14]; 125 g ai/ha,35
same,"Plant response rating, Wheat",[14]; 250 g ai/ha,60
same,"Plant response rating (scale of 0 to 100), Morningglory",[15]; [18],0
same,"Plant response rating, Morningglory",[15]; 62 g ai/ha,0
same,"Plant response rating, Morningglory",[15]; 125 g ai/ha,5
same,"Plant response rating, Morningglory",[15]; 250 g ai/ha,10
same,"Plant response rating (scale of 0 to 100), Johnsongrass",[16]; [18],40
same,"Plant response rating, Johnsongrass",[16]; 62 g ai/ha,80
same,"Plant response rating, Johnsongrass",[16]; 125 g ai/ha,80
same,"Plant response rating, Johnsongrass",[16]; 250 g ai/ha,85
same,"Plant response rating (scale of 0 to 100), Foxtail, Giant",[17]; [18],80
same,"Plant response rating, Foxtail, Giant",[17]; 62 g ai/ha,85
same,"Plant response rating, Foxtail, Giant",[17]; 125 g ai/ha,90
same,"Plant response rating, Foxtail, Giant",[17]; 250 g ai/ha,90
